Data from patent US20040048318A1, “Method for screening anti-proliferative compounds and method for inhibiting tumor growth” (priority 2003, published 2004).

What was measured:
methionine 14-3-3γ [1] = test: IEF-immunoblotting for induction of methionine 14-3-3γ in H1299 cells; format: cell-based, human
Experimental: (§1) H1299, a non-small cell lung carcinoma which is obtained from the American Type Culture Collection (Rockville, Md.), is cultivated in PRMI1640 supplemented with 10% fetal calf serum and glutamine, penicillin, streptomycin, and gentamycin. The H1299 cells are grown to about 70% confluenc and then cultivated with or without 25 μM bengamide. Samples of the cells are taken at 8, 16, 24 and 48 hours. At the end of the culture periods, the sample cells are washed with PBS (phosphate buffered solution, available from Sigma Chemical) and collected by scraping and centrifugation. The cell pellet is dissolved in 4 volumes of Rabilloud buffer. Rabilloud buffer contained 4% non-ionic detergent CHAPS, 7 M urea, 2 M thiourea, 10 mg/ml dithiothreitol and 1% pharmalytes (pH 3-10), which buffer is disclosed in Electrophoresis, 1997 Mar-Apr., 18 (3-4): 307-16, Rabilloud et al., Improvement of the Solubilization of Proteins in Two-dimensional electrophoresis with immobilized pH Gradients. The cell concentration was between 2 and 2.5 E7/ml.
(§2) Immobilized pH-gradient (IPG) gels (Immobiline®, Amersham Pharmacia Biotech) are re-swollen for at least 4 hours in Rabilloud buffer without pharmalytes. Samples (1 μl of cell extract) are directly loaded at a distance of about 2 cm from the anode to the surface of the gel using a comb. Focusing is carried out at 200 V for 2 hours and at 1000 or 3500 V until a 25000 Vh is reached. The temperature is maintained at 15° C. After focusing, the gel is fixed in 12% TCA-3.5% sulfosalicylic acid for 1 hour and washed in water for 1 hour. The washed gel is blotted by placing the gel on a flat surface and covering with a sheet of PVDF-membrane which was sequentially soaked in Isopropanol, water and a guanidinium chloride solution of […] Tris-HCl at pH 7.5, 4 M guanidinium chloride, 1 mg/ml DTT. The membrane is covered with 4 layers of filter paper sheets which was soaked with the guanidinium chloride solution. A polyethylene film is placed over the filter sheets and a 3 kg weight having a 14 cm by 14 cm flat surface is placed over the polyethylene film to ensure a good contact between the layers. The gel layers are undisturbed to allow transfer for overnight, then the membrane is washed with water and treated with a solution of 0.5% formaldehyde in PBS for 30 minutes. The membrane is incubated with 2% glycine in PBS at pH 7 for 30 minutes.
The membrane is then blocked with 0.05% Tween 20-1% skimmed dry milk powder in PBS for 1 hour. Commercially available antibodies against 14-3-3 (Santa Cruz) are applied for 4 hours in blocking buffer. Chemiluminescence detection (ECL-kit, Amersham Pharmacia Biotech) is carried out using the secondary antibodies supplied with the kit.

methionine 14-3-3γ [2] = test: IEF-immunoblotting for induction of methionine 14-3-3γ in A549 (lung carcinoma) cells; format: cell-based, human; details: 200 nM LAF389, within 18 hours
Experimental: [The procedure below names another cell line; the source says it served here with some conditions changed.] as §1
(§3) Immobilized pH-gradient (IPG) gels (Immobiline®, Amersham Pharmacia Biotech) are re-swollen for at least 4 hours in Rabilloud buffer without pharmalytes. Samples (1 μl of cell extract) are directly loaded at a distance of about 2 cm from the anode to the surface of the gel using a comb. […]

methionine 14-3-3γ [3] = test: IEF-immunoblotting of white blood cell fraction from treated rats for methionine 14-3-3γ; format: in vivo; details: 3 mg/kg three times for a day, rested 7 days, dosed three times again, blood collected after one day rest
Experimental: One group of laboratory rats is treated with the bengamide analogue LAF389 of Example 2 three times for a day at the 3 mg/kg dosage, then rested for 7 days. Th rats are again dosed three times the following day with the dosage. They are rested for one day and blood samples are collected. Peripheral blood is collected by a percoll gradient centrifugation protocol. The white blood cell fraction including platelets is recovered and the pellet is lysed in IEF sample buffer. The bio-samples are analyzed with the IEF-immunoblotting analysis. Control bio-samples are obtained from a group of rats that are not treated with the bengamide analogue.

methionine 14-3-3γ [4] = test: IEF-immunoblotting for induction of methionine 14-3-3γ in MDA-MB435 (mammary carcinoma) cells; format: cell-based, human; details: 200 nM LAF389, within 18 hours
Experimental: [The procedure below names another cell line; the source says it served here with some conditions changed.] as §1, §3

methionine 14-3-3γ [5] = test: IEF-immunoblotting for induction of methionine 14-3-3γ in U20S (osteosarcoma) cells; format: cell-based, human; details: for expression of the altered 14-3-3γ isoform: U20S cells treated with the compound (summary statement, no concentration given)
Experimental: [The procedure below names another cell line; the source says it served here with some conditions changed.] as §1
as §2, with “A polyethylene film is placed over the filter sheets and a 3 kg weight having a 14 cm by 14 cm flat surface is placed over the polyethylene film to ensure a good contact between the layers. The gel layers are undisturbed to allow transfer for overnight, then the membrane is washed with water and treated with a solution of 0.5% formaldehyde in PBS for 30 minutes. The membrane is incubated with 2% glycine in PBS at pH 7 for 30 minutes.” left out

With `CO[C@@H]1[C@H](OC(=O)NC(=O)CCl)CC[C@]2(CO2)[C@H]1[C@@]1(C)O[C@@H]1CC=C(C)C` [AGM-1470] the “induction of methionine 14-3-3γ (IEF-immunoblotting)” value (shortened to “induction of methionine 14-3-3γ”) (methionine 14-3-3γ [1]; AGM-1470 in place of bengamide) was “induce methionine 14-3-3γ”.

In the case of `COC(C(=O)NC1CCC(OC(=O)C2CCCCC2)CNC1=O)C(O)C(O)C(O)/C=C/C(C)(C)C` (stereo not shown) [LAF389], the “induction/accumulation of methionine 14-3-3γ (IEF-immunoblotting)” value (methionine 14-3-3γ [1]; 200 nM LAF389, samples at 8, 16, 24 and 48 hours) is reported as “induce and accumulate the protein which is reactive to the 14-3-3γ antibody”, the “induction of methionine 14-3-3γ” value (methionine 14-3-3γ [1]; 18 hours, LAF389 200 nM, 5-fluorouracil 20 μg/ml, epothilone 500 nM, doxorubicin 1 μg/ml, stauosporin 1 μM) is reported as “induced methionine 14-3-3γ” and the “induction of methionine 14-3-3γ” value (methionine 14-3-3γ [2]) is reported as “induce methionine 14-3-3γ within 18 hours”. For the same compound, the “induction and accumulation of methionine 14-3-3γ in white blood cell fraction” value (methionine 14-3-3γ [3]) was “induce and accumulate methionine 14-3-3γ”, the “induction of methionine 14-3-3γ” value (methionine 14-3-3γ [4]) was “induce methionine 14-3-3γ within 18 hours” and the “induction of methionine 14-3-3γ” value (methionine 14-3-3γ [5]; U20S cells, 200 nM LAF389, within 18 hours) was “induce methionine 14-3-3γ within 18 hours”.

`CO[C@@H]1[C@H](OC(=O)/C=C/C=C/C=C/C=C/C(=O)O)CC[C@]2(CO2)[C@H]1[C@@]1(C)O[C@@H]1CC=C(C)C` [fumagillin] was tested, and the “expression of the altered 14-3-3γ isoform” value (methionine 14-3-3γ [5]) was “express the altered 14-3-3γ isoform”.

With bengamide the “induction/accumulation of methionine 14-3-3γ (IEF-immunoblotting)” value (methionine 14-3-3γ [1]; 25 μM bengamide, samples at 8, 16, 24 and 48 hours) was “gradually accumulate over the 48 hour culture period the protein that reacts with the 14-3-3γ specific antibody” and the “expression of the altered 14-3-3γ isoform” value (methionine 14-3-3γ [5]) was “express the altered 14-3-3γ isoform”.
